Molecules are shown by their SMILES. Where two headings read alike, the source gives them in different places.

In test [1] the target is T1, follicle-stimulating hormone (FSH) receptor (Rattus norvegicus, UniProt P20395).
T1 construct: endogenous in cells; host or cells: rat granulosa cells
T1 sequence (P20395 18-692): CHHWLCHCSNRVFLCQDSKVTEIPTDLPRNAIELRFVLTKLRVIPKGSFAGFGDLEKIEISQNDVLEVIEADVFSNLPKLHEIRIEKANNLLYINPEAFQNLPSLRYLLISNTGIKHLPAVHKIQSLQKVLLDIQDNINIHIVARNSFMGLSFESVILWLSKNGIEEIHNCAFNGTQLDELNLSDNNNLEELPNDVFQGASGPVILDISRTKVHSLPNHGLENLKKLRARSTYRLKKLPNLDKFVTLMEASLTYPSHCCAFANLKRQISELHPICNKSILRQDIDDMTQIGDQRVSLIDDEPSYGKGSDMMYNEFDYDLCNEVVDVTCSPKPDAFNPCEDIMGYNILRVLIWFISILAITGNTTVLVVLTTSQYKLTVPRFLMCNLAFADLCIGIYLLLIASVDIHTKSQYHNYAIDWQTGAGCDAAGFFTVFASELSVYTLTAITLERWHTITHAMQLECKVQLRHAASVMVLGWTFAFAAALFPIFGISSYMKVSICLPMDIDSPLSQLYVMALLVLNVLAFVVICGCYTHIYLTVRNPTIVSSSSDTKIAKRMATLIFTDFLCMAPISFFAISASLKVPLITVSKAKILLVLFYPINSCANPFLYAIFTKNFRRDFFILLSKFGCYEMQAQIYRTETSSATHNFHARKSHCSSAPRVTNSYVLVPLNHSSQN
Kind of test: Rat granulosa EC50 FSH (Assay B). The test is classed as cell-based. The following applies: rat granulosa cells. Here is the method: Example 11: Rat Granulosa EC50 FSH (Assay B)
The assay was performed pursuant to the teaching of Yanofsky et al. (2006) Allosteric activation of the follicle-stimulating hormone (FSH) receptor by selective, nonpeptide agonists. JBC 281(19): 13226-13233, which is incorporated by reference in the disclosure of the invention.

In the next test the target is T2, FSHR (Homo sapiens, UniProt P23945).
T2 construct: expressed in transfected cells; host or cells: CHO (Cho-FSHR-LUC-1-1-43)
Kind of test: EC50 of cyclic AMP production in CHO FSHR cells + EC20 FSH (Assay A). The class given is cell-based. In short, it runs like this:
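cAMP HTRF ratio (665/620 nm) read after 1 h, 37 °C exposure of CHO-FSHR cells to compound in presence of EC20 FSH ([…]) and IBMX 200 μM. Responses given relative to FSH standard maximum; EC50 derived.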

Setting [2] is: CHO FSHR cells + EC20 FSH, Table 1, read-out: Assay A EC50 of cyclic AMP production.
The mark [3] stands for this setting: CHO FSHR cells + EC20 FSH, Table 2, read-out: Assay A EC50 of cyclic AMP production.

T2 sequence (P23945 18-695): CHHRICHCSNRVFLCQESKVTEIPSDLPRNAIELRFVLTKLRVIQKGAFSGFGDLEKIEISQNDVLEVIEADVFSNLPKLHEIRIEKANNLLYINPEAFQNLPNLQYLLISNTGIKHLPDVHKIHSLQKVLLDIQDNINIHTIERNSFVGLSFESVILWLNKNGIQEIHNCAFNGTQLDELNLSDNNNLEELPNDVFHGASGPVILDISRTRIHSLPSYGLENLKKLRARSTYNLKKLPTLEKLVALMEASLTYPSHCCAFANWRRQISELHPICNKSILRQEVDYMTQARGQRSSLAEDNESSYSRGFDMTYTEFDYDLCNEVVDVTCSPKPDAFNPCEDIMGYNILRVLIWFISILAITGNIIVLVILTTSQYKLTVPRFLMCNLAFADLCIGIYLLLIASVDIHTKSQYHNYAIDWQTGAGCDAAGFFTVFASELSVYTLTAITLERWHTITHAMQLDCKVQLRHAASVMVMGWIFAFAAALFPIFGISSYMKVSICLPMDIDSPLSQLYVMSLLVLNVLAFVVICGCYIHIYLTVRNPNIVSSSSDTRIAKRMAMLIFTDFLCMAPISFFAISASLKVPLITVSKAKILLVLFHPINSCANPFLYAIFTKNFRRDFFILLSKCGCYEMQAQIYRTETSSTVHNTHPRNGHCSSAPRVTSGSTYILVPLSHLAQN
T2 sequence (P01215 25-116 partner): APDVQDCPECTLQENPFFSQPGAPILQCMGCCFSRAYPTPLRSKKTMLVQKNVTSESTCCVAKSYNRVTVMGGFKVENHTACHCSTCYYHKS
T2 sequence (P01225 19-129 partner): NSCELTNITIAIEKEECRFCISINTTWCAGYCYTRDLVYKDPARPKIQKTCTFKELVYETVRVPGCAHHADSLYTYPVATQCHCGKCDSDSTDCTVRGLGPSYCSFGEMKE

For `Cc1ccccc1N1CCN(c2ccc(C(=O)NCCCN3CCOC3=O)cc2NC(=O)c2ccco2)CC1` [Compound 155], the EC50 – broadly, the concentration needed to bring the measured effect to its halfway point – in test [1] (Table 1) lay within 1000 to 10000 nM; at FSHR (setting [2]), 100 to 1000 nM.

Take `O=C(NCC1CCCO1)c1ccc(N2CCN(Cc3ccccc3)CC2)c(NC(=O)c2ccccc2Cl)c1` (stereo not drawn) [Compound 3]: in test [1] (Table 1), the “Assay B % at 5 μM” value was found to be 10%. For the same compound, the EC50 at FSHR (setting [2]) was 100 to 1000 nM.

For the compound `Cc1ccc(C(=O)Nc2cc(C(=O)NCCCN3CCOC3=O)ccc2N2CCN(c3ccccc3C)CC2)o1` [Compound 322], the half-maximal effective concentration (EC50) in test [1] (Table 2) lay within 1000 to 10000 nM; on FSHR (setting [3]), 100 to 1000 nM.

Regarding `Cc1ccccc1N1CCN(c2ccc(C(=O)NCc3cccc(CN(C)C)c3)cc2NC(=O)c2ccco2)CC1` [Compound 320], the EC50 (in test [1] (Table 2); at FSHR (setting [3])) was 100 to 1000 nM throughout.

Regarding `Cc1nc(C(=O)Nc2cc(C(=O)NCCCN3CCCC3=O)ccc2N2CCN(c3ccccc3C)CC2)cs1` [Compound 74], the 50% effective concentration (EC50) (in test [1] (Table 1); at FSHR (setting [2])) was 100 to 1000 nM throughout.

Regarding `Cc1ccccc1N1CCN(c2ccc(C(=O)NCCCc3cn[nH]c3)cc2NC(=O)c2ccco2)CC1` [Compound 152], the results for the EC50 (in test [1] (Table 1); at FSHR (setting [2])) were less than 100 nM and 100 to 1000 nM, respectively.

In the case of `Cc1ccccc1N1CCN(c2ccc(C(=O)NCCCN3CCCC3=O)cc2NC(=O)c2ccccc2F)CC1` [Compound 85], the concentration giving a half-maximal response (EC50) fell in the range of 1000 to 10000 nM in test [1] (Table 1) and 100 to 1000 nM at FSHR (setting [2]).

Take `Cc1ccc(C(=O)Nc2cc(C(=O)NCCCN3CCCC3=O)ccc2N2CCN(c3ccccc3C3CC3)CC2)o1` [Compound 523]: the EC50 (in test [1] (Table 2); on FSHR (setting [3])) was 100 to 1000 nM throughout.

As to `O=C(NCCCN1CCCC1=O)c1ccc(N2CCN(c3ncccc3Cl)CC2)c(NC(=O)c2coc(C3CC3)n2)c1` [Compound 510], the EC50 was 1000 to 10000 nM in test [1] (Table 2) and less than 100 nM on FSHR (setting [3]).

For `Cc1ccccc1N1CCN(c2ccc(C(=O)NCCCN3CCCC3=O)cc2NC(=O)c2cscn2)CC1` [Compound 73], the half-maximal effective concentration (EC50) lay within 1000 to 10000 nM in test [1] (Table 1) and 100 to 1000 nM at FSHR (setting [2]).

For the compound `Cc1ccccc1N1CCN(c2ccc(C(=O)NCCCN3CCCC3=O)cc2NC(=O)c2coc(C3CC3)n2)CC1` [Compound 105], the EC50 is 100 to 1000 nM in test [1] (Table 1) and less than 100 nM at FSHR (setting [2]).

On to `Cc1ccccc1N1CCN(c2ccc(C(=O)NCCCN3CCCC3=O)cc2NC(=O)c2ccc(F)cn2)CC1` [Compound 128], for which the half-maximal effective concentration (EC50) (in test [1] (Table 1); on FSHR (setting [2])) was 100 to 1000 nM each time.

`Cc1ccnc(N2CCN(c3ccc(C(=O)NCCCN4CCCC4=O)cc3NC(=O)c3coc(C4CC4)n3)CC2)c1` [Compound 529]: the results for the EC50 (in test [1] (Table 2); at FSHR (setting [3])) were 1000 to 10000 nM and 100 to 1000 nM, respectively.

For `Cc1ccccc1N1CCN(c2ccc(C(=O)NCCCN3CCCC3=O)cc2NC(=O)c2coc(Cl)n2)CC1` [Compound 207], the concentration for a half-maximal effect (EC50) (in test [1] (Table 1); at FSHR (setting [2])) was 100 to 1000 nM in each case.

For `Cc1ccc(C(=O)Nc2cc(C(=O)NCCCCO)ccc2N2CCN(c3ccccc3C)CC2)o1` [Compound 241, 5-Methyl-furan-2-carboxylic acid [5-(4-hydroxy-butylcarbamoyl)-2-(4-o-tolyl-piperazin-1-yl)-phenyl]-amide], the “Assay B % at 5 μM” value in test [1] (Table 1) was determined as 177%. Also, the EC50 on FSHR (setting [2]) was in the range of 100 to 1000 nM.

With `Cc1ccccc1N1CCN(c2ccc(C(=O)NCCc3c[nH]cn3)cc2NC(=O)c2ccco2)CC1` [Compound 15], the half-maximal effective concentration (EC50) (in test [1] (Table 1); at FSHR (setting [2])) was 100 to 1000 nM each time.

As to `Cc1ccccc1N1CCN(c2ccc(C(=O)NCCCN3CCCC3=O)cc2NC(=O)c2ccc(F)cc2)CC1` [Compound 31], the half-maximal effective concentration (EC50) (in test [1] (Table 1); on FSHR (setting [2])) was 100 to 1000 nM throughout.

Regarding `Cc1ccccc1N1CCN(c2ccc(C(=O)NCCCN3CCCC3=O)cc2NC(=O)c2ccc(Br)o2)CC1` [Compound 143, 5-Bromo-furan-2-carboxylic acid [5-[3-(2-oxo-pyrrolidin-1-yl)-propylcarbamoyl]-2-(4-o-tolyl-piperazin-1-yl)-phenyl]-amide], the EC50 (in test [1] (Table 1); on FSHR) was 100 to 1000 nM each time.

`Cc1ccccc1N1CCN(c2ccc(C(=O)NCCCN3C(=O)[C@H]4C[C@@H]3C(O)C4O)cc2NC(=O)c2coc(C3CC3)n2)CC1` (stereo partly drawn) [Compound 365]: the concentration giving a half-maximal response (EC50) in test [1] (Table 2) was less than 100 nM; at FSHR (setting [3]), 100 to 1000 nM.

Regarding `Cc1ccccc1N1CCN(c2ccc(C(=O)NCc3cccc(C(N)=O)c3)cc2NC(=O)c2coc(C3CC3)n2)CC1` [Compound 304], in test [1] (1.25 μM, Table 2), the “Assay B % at 1.25 μM” value came to 79%. In addition, the EC50 on FSHR (setting [3]) was less than 100 nM.

For the compound `COc1ccnc(N2CCN(c3ccc(C(=O)NCCCN4CCCC4=O)cc3NC(=O)c3coc(C4CC4)n3)CC2)n1` [Compound 601], the concentration for a half-maximal effect (EC50) in test [1] (Table 2) lay in the range of 1000 to 10000 nM; on FSHR (setting [3]) it was 100 to 1000 nM.

With `Cc1ccc(C(=O)Nc2cc(C(=O)NCCCN3CCCC3=O)ccc2N2CCN(c3ccccc3C(F)(F)F)CC2)o1` [Compound 246], the EC50 (in test [1] (Table 1); at FSHR (setting [2])) was 1000 to 10000 nM throughout.

Regarding `Cc1ccccc1N1CCN(c2ccc(C(=O)NCCCN3CCCC3=O)cc2NCc2ccccn2)CC1` [Compound 526], the values for the EC50 (in test [1] (Table 2); on FSHR (setting [3])) were greater than 10000 nM and 100 to 1000 nM, respectively.

On to `Cc1ccccc1N1CCN(c2ccc(C(=O)NCCS(=O)(=O)N3CCCC3)cc2NC(=O)c2coc(C3CC3)n2)CC1` [Compound 344], for which the values for the EC50 (in test [1] (Table 2); on FSHR (setting [3])) were 100 to 1000 nM and 1000 to 10000 nM, respectively.

`Cc1ccccc1N1CCN(c2ccc(C(=O)N3CCC4(CCOC4)CC3)cc2NC(=O)c2ccco2)CC1` [Compound 224] registered a 50% effective concentration (EC50) in test [1] (Table 1) of 1000 to 10000 nM. In addition, at FSHR (1 h, 5 μM, effect relative to maximum response of the FSH standard, Table 1), the activation at 5 µM came to 10%.

In the case of `Cc1ccccc1N1CCN(c2ccc(C(=O)NC3CCN(S(C)(=O)=O)CC3)cc2NC(=O)c2ccco2)CC1` [Compound 58, Furan-2-carboxylic acid [5-(1-methanesulfonyl-piperidin-4-ylcarbamoyl)-2-(4-o-tolyl-piperazin-1-yl)-phenyl]-amide], the “Assay B % at 5 μM” value in test [1] (Table 1) was 27%. In addition, on FSHR (setting [2]), the EC50 lay in the range of 100 to 1000 nM.

Turning to `CCc1nc(C(=O)Nc2cc(C(=O)NCCCN3CCCC3=O)ccc2N2CCN(c3ccccc3C)CC2)co1` [Compound 79], the 50% effective concentration (EC50) (in test [1] (Table 1); on FSHR (setting [2])) was 100 to 1000 nM in each case.

Consider `Cc1ccccc1N1CCN(c2ccc(C(=O)NCCCN3CCCC3=O)cc2NC(=O)c2ccn(C)n2)CC1` [Compound 435], for which the EC50 (in test [1] (Table 2); at FSHR (setting [3])) was 100 to 1000 nM throughout.

For `Cc1csc(C(=O)Nc2cc(C(=O)NCCCN3CCCC3=O)ccc2N2CCN(c3ccccc3C)CC2)n1` [Compound 203], the EC50 (in test [1] (Table 1); on FSHR (setting [2])) was 100 to 1000 nM each time.

Consider `Cc1ccccc1N1CCN(c2ccc(C(=O)NCCCN3C(=O)CCC3=O)cc2NC(=O)c2ccco2)CC1` [Compound 147], for which the 50% effective concentration (EC50) (in test [1] (Table 1); on FSHR (setting [2])) was 100 to 1000 nM in each case.

Values taken from patent US9938262B2, “Benzamides” (Merck Patent GmbH, priority 2011, dated 2018).
